Patent US20250099514A1, “FISH REARING COMPOSITION, AND COMPOSITION FOR PREVENTING OR TREATING FISH DISEASES” (SUMITOMO CHEMICAL COMPANY, LIMITED, priority 2021, published 2025)
Non-standard residues stand in square brackets, D forms with d. Primed or numbered codes have the meaning given here. No end group written: not given here. Dhb′ = not defined here; Dha = C=C(N)C(=O)O

Columns and labels:
[1] = tested on: Lactococcus garvieae type I (TUMSAT-K9408 strain); experiment: Antibacterial activity test: growth of Lactococcus garvieae type I after shaking culture with the test substance, colony formation on TH agar; assay type: cell-based; conditions: Experiments 8 and 9, 1 to 10 μM
Procedure: (§1) Examination was performed on whether bacterial cell preparations of NITE BP-03198, NITE BP-03199, NITE BP-03200, NITE BP-03202, ATCC-11454, and NITE ABP-03481 inhibit the growth of Lactococcus garvieae type I (TUMSAT-K9408 strain) and type II (TUMSAT-LgN1 strain). With reference to FIG. 7, the experimental method will be described. To 270 μL of Todd-Hewitt (TH) medium 10, 30 μL of a lactic acid bacterial cell preparation 11 was added. Furthermore, 3 μL of a bacterial solution 12 containing Lactococcus garvieae (approximately 10^5 cfu/mL) was added, and shaking culture was performed at 25° C. for 8 hours. To TH agar medium 14, 5 μL of a bacterial culture solution 13 was dropped, culture was performed at 25° C. for 12 hours, and whether a colony 15 of Lactococcus garvieae formed was observed. If the number of colonies observed was five or less, it was determined that there was antibacterial activity. Lactic acid bacterial cell preparations were prepared in the following manner. For NITE BP-03198, NITE BP-03199, NITE BP-03200, and NITE BP-03202, first, the lactic acid bacteria were each cultured in MRS Broth at a temperature of 30° C., giving culture solutions. Thereafter, the culture solutions were centrifuged to precipitate bacterial cells, and the culture supernatants were collected. […]

[2] = tested on: Lactococcus garvieae type II (TUMSAT-LgN1 strain); experiment: Antibacterial activity test: growth of Lactococcus garvieae type II after shaking culture with the test substance, colony formation on TH agar; assay type: cell-based; conditions: Experiments 8 and 9, 1 to 10 μM
Procedure: as §1

[3] = tested on: Lactococcus garvieae type I (TUMSAT-K9408 strain); experiment: Antibacterial activity test: growth of Lactococcus garvieae type I after shaking culture with the test substance, colony formation on TH agar; assay type: cell-based; design: key: +: presence of antibacterial activity; −: absence of antibacterial activity; conditions: 25° C., 8 hours
Procedure: (§2) Examination was performed on whether bacterial cell preparations of NITE BP-03198, NITE BP-03199, NITE BP-03200, NITE BP-03202, ATCC-11454, and NITE ABP-03481 inhibit the growth of Lactococcus garvieae type I (TUMSAT-K9408 strain) and type II (TUMSAT-LgN1 strain). With reference to FIG. 7, the experimental method will be described. To 270 μL of Todd-Hewitt (TH) medium 10, 30 μL of a lactic acid bacterial cell preparation 11 was added. Furthermore, 3 μL of a bacterial solution 12 containing Lactococcus garvieae (approximately 10^5 cfu/mL) was added, and shaking culture was performed at 25° C. for 8 hours. To TH agar medium 14, 5 μL of a bacterial culture solution 13 was dropped, culture was performed at 25° C. for 12 hours, and whether a colony 15 of Lactococcus garvieae formed was observed. If the number of colonies observed was five or less, it was determined that there was antibacterial activity. Lactic acid bacterial cell preparations were prepared in the following manner. For NITE BP-03198, NITE BP-03199, NITE BP-03200, and NITE BP-03202, first, the lactic acid bacteria were each cultured in MRS Broth at a temperature of 30° C., giving culture solutions. Thereafter, the culture solutions were centrifuged to precipitate bacterial cells, and the culture supernatants were collected. The culture supernatants collected were 10-fold concentrated by using an ultrafiltration membrane (Merck Millipore, AMICON ULTRA-15 3 KDa cutoff), giving bacterial cell preparations. For ATCC-11454 and NITE ABP-03481, bacterial cell preparations were obtained in the same manner as described for NITE BP-03198 and others. As a negative control, medium for lactic acid bacteria (MRS Broth) was added to a bacterial solution containing Lactococcus garvieae.
(§3) Examination was performed on whether synthetic plantaricins inhibit the growth of Lactococcus garvieae type I (TUMSAT-K9408 strain) and type II (TUMSAT-LgN1 strain). The method in Experiment 8 is the same as that in Experiment 7 except that synthetic plantaricins were used in place of the lactic acid bacterial cell preparations. Each synthetic plantaricin was synthesized by using common techniques of organic synthesis. A solution containing plantaricin A (plantaricin A), a solution obtained by mixing plantaricin E and plantaricin F at a ratio (mole ratio) of 1:1 (plantaricin EF), a solution obtained by mixing plantaricin J and plantaricin K at a ratio (mole ratio) of 1:1 (plantaricin JK), or a solution obtained by mixing plantaricin NC8α and plantaricin NC8β at a ratio (mole ratio) of 1:1 (plantaricin NC8αβ) was added to a bacterial solution containing Lactococcus garvieae, and shaking culture was performed at 25° C. for 8 hours. The bacterial solutions containing Lactococcus garvieae after culture were each dropped on agar medium, and whether a colony of Lactococcus garvieae formed was observed.
Examination was performed on whether a purified product of nisin A inhibits the growth of Lactococcus garvieae type I (TUMSAT-K9408 strain) and type II (TUMSAT-LgN1 strain). The method in Experiment 9 is the same as those in Experiments 7 and 8 except that a purified product of nisin A was used in place of the lactic acid bacterial cell preparations or the synthetic plantaricins. A purified product of nisin A (manufactured by Sigma-Aldrich Co. LLC) was dissolved in water and removed of insoluble components by centrifugation, giving a nisin A solution. […]

[4] = tested on: Lactococcus garvieae type II (TUMSAT-LgN1 strain); experiment: Antibacterial activity test: growth of Lactococcus garvieae type II after shaking culture with the test substance, colony formation on TH agar; assay type: cell-based; design: key: +: presence of antibacterial activity; −: absence of antibacterial activity; conditions: 25° C., 8 hours
Procedure: as §2
as §3, with “The bacterial solutions containing Lactococcus garvieae after culture were each dropped on agar medium, and whether a colony of Lactococcus garvieae formed was observed.” left out

[5] = tested on: Lactococcus garvieae 03/8460 strain; conditions: NPL 3; cited from earlier work
[6] = tested on: Lactococcus garvieae CLG4 strain; conditions: NPL 4; cited from earlier work
[7] = tested on: Lactococcus garvieae type I (TUMSAT-K9408 strain); experiment: Antibacterial activity test: growth of Lactococcus garvieae type I after shaking culture with the test substance, colony formation on TH agar; assay type: cell-based; design: key: +: presence of antibacterial activity,; −: absence of antibacterial activity; conditions: synthetic plantaricin 10 μM; 25° C., 8 hours
Procedure: as §1

[8] = tested on: Lactococcus garvieae type II (TUMSAT-LgN1 strain); experiment: Antibacterial activity test: growth of Lactococcus garvieae type II after shaking culture with the test substance, colony formation on TH agar; assay type: cell-based; design: key: +: presence of antibacterial activity,; −: absence of antibacterial activity; conditions: 25° C., 8 hours
Procedure: as §1

**Q.** With “nisin A (I[Dhb′]SI[Dha]LCTPGCKTGALMGCNMKTATCHCSIHV[Dha]K; thioether (positions not given here); not fully specified (residues 3, 8, 13, 23, 25, bridges); also: lanthionine thioether rings and dehydro residues not placed; UniProt P13068 24-57, looked up) [purified product of nisin A (manufactured by Sigma-Aldrich Co. LLC) dissolved in water]” as the substance, how does the “Inhibition of the growth of Lactococcus garvieae type I (in words)” value [1] read?
**A.** inhibited the growth

**Q.** And the “Inhibition of the growth of Lactococcus garvieae type II (in words)” value [2]?
**A.** inhibited the growth

**Q.** What about the “Antibacterial activity, Lactococcus garvieae TUMSAT-K9408” value ([3]; nisin A solution 1 μM) of the same substance?
**A.** +

**Q.** What about the “Antibacterial activity, Lactococcus garvieae TUMSAT-K9408” value ([3]; nisin A solution 3 μM) of the same substance?
**A.** +

**Q.** And the “Antibacterial activity, Lactococcus garvieae TUMSAT-K9408” value ([3]; nisin A solution 10 μM)?
**A.** +

**Q.** What about the “Antibacterial activity, Lactococcus garvieae TUMSAT-LgN1” value ([4]; nisin A solution 1 μM) of the same substance?
**A.** +

**Q.** And the “Antibacterial activity, Lactococcus garvieae TUMSAT-LgN1” value ([4]; nisin A solution 3 μM)?
**A.** +

**Q.** What about the “Antibacterial activity, Lactococcus garvieae TUMSAT-LgN1” value ([4]; nisin A solution 10 μM) of the same substance?
**A.** +

**Q.** Which results are given for “nisin Z (I[Dhb′]SI[Dha]LCTPGCKTGALMGCNMKTATCNCSIHV[Dha]K; thioether (positions not given here); not fully specified (residues 3, 8, 13, 23, 25, bridges); also: lanthionine thioether rings and dehydro residues not placed; UniProt P29559 24-57, looked up) [antibacterial peptide produced by Lactococcus lactis strains TW34 and WA2-67 (literature)]”?
**A.** Growth of the Lactococcus garvieae 03/8460 strain [5]: inhibited the growth; Growth of the Lactococcus garvieae CLG4 strain [6]: inhibited the growth

**Q.** What does the source list for plantaricin A?
**A.** Inhibition of the growth of Lactococcus garvieae type I (in words) [1]: inhibited the growth; Inhibition of the growth of Lactococcus garvieae type II (in words) [2]: inhibited the growth; Antibacterial activity, Lactococcus garvieae TUMSAT-K9408 ([3]; synthetic plantaricin 1 μM): −; Antibacterial activity, Lactococcus garvieae TUMSAT-K9408 ([3]; synthetic plantaricin 3 μM): −; Antibacterial activity, Lactococcus garvieae TUMSAT-LgN1 ([4]; synthetic plantaricin 1 μM): −; Antibacterial activity, Lactococcus garvieae TUMSAT-K9408 [7]: +; Antibacterial activity, Lactococcus garvieae TUMSAT-LgN1 ([8]; synthetic plantaricin 3 μM): +; Antibacterial activity, Lactococcus garvieae TUMSAT-LgN1 ([8]; synthetic plantaricin 10 μM): +
